US8841121B2, “Vector, vector combinations, methods and kit thereof” (Jawaharlal Nehru Centre for Advanced Scientific Research, priority 2010, dated 2014)
Entries after “also recorded” stand apart in the source; their conditions may differ.

What was measured:
[1] = molecular target: T1, Tat (Human immunodeficiency virus type 1 group M subtype B, UniProt P35965); assay: Tat-inducible GFP / anti-RFP shRNA reporter assay, transient transfection in HEK293 cells; assay type: cell-based, HIV-1; set-up: The full-length Tat cDNA from molecular clone YU-2 (subtype-B) is made from cellular RNA of 293 cells; expressed in transfected cells; host or cells: HEK293 (293) cells, transient transfection; pcDNA3.1 CMV-Tat (YU-2) or EF-1α-Tat (YU-2) vector
Method: (§1) Vector DNA Transfection: All the proof-of-the-concept assays embedded in this document are performed using the transient transfection method formats. Most of the experiments are done using host cells such as HEK293 cells and preferably the standard calcium transfection protocol. Further, few experiments are also performed using HeLa cells. A commercial lipid formulation is used for this and is used following the suppliers instructions.
siRNA Transfection: Anti-Tat siRNA molecules are introduced into cells using a commercial lipid-nanoparticle formulation as per the instructions from the supplier.
Adding Tat Inhibitors to the Cell and Screening to Identify Anti-viral/Tat Molecules: The assays are performed using the following format although several variations are introduced depending on the need. • a) Cell Plating: Cells are plated in 96-well culture plates the previous evening and on the morning of the experiment, they are at 30-40% occupancy and in the logarithmic growth phase. • b) DNA Vector Transfection: A combination of 4 vectors is used in most of the assays. The total DNA concentration ranged from 1 to 2 μg per a 24-well plate or 100-200 ng per 96-well plate depending on the context. • 1. Anti-RFP siRNA vector (pPRIME-LTR-GFP: anti-RFP miRNA (p604.344):100-600 ng • 2. Anti-RFP siRNA vector (pPRIME-LTR-GFP: anti-RFP miRNA (p604.620): 100-600 ng • 3. CMV-Tat (YU-2) vector:50-200 ng • 4. CMV-RFP vector (pCMV-RFP-IRES-Puro) (FIGS. 21):50-200 ng
Cells are monitored for GFP or RFP expression after 24 h after subjected to an anti-Tat compound.
Anti-Tat Compound Treatment: A small molecule inhibitor (at concentrations mentioned in individual experiments above) or anti-Tat siRNA (20-100 ng per well) are used. The anti-Tat agent is used immediately after plasmid DNA transfection or after 12-24 h. Cells are removed from the wells by trypsinization and made into single cell suspension in phosphate buffered saline. The mean fluorescence intensity of the cells was determined using flow cytometry. Alternatively, cells were removed from the well using trypsinization and suspended in PBS. The intensity of the fluorescence was quantitatively determined using a standard fluorimeter. Fluorescent protein gene expression is measured at 24, 36, 48 and 72 h from vector transfection, at one time point or multiple time points.
(§2) DRB (5, 6-dichloro-1-beta-D-ribofuranosylbenzimidazole) a small molecule inhibitor, blocks an essential cellular enzyme CDK9, a kinase, critical for general transcription of many genes and therefore is cytotoxic. […] The Tat inhibition potential as well as cytotoxicity of DRB at 3 different concentrations is tested in HEK 293 cells using plasmid combinations as defined in Table-2. Images of the cells are captured using light microscopy, GFP or RFP filters at 36 h. […] Thus, the GFP-based assay identifies false hits, but not the instant RFP-based assay.

[2] = test system: HEK 293 cells; assay: Cytotoxicity / cell death by light microscopy in transfected HEK 293 cells; assay type: cell-based; conditions: for Cytotoxicity / cell death (light microscopy): HEK 293 cells, increasing concentrations of the inhibitor
Method: Tat up-regulates GFP expression (middle panels). […] Thus, a cytotoxic molecule down-regulates GFP without being a Tat inhibitor.
293 cells are transiently transfected with pPRIME-LTR-GFP: anti-RFP miRNA (p604.344 and p604.620), CMV-RFP and EF-1α-Tat (YU-2) vectors. Cells are treated with different concentrations of the SMI 24 h after transfection. GFP and RFP expression is recorded 24 h after vector transfection. LM, Light microscopy.
as §2

[3] = molecular target: T1, Tat; assay: Tat-inducible GFP / anti-RFP shRNA reporter assay, transient transfection in HeLa cells; assay type: cell-based, HIV-1; set-up: The full-length Tat cDNA from molecular clone YU-2 (subtype-B) is made from cellular RNA of 293 cells; expressed in transfected cells; pcDNA3.1 CMV-Tat (YU-2) or EF-1α-Tat (YU-2) vector; conditions: 25 μM, 24 h
Method: HeLa cells are transiently transfected with pPRIME-LTR-GFP: anti-RFP miRNA (p604.344 and p604.620), CMV-RFP and EF-1α-Tat (YU-2) vectors. Cells are treated with 25 μM DRB. GFP and RFP expression is recorded 24 h after vector transfection.
as §1
The assay also identifies SMI which inhibit cellular factors needed for Tat. 5,6-Dichlorobenzimidazole Riboside (DRB) is a potent inhibitor of CDK9 which is a cellular factor necessary for Tat function. […] Thus the assay of the present disclosure also identify such SMI that have an indirect effect on Tat function.

[4] = molecular target: T2, Tat (Human immunodeficiency virus type 1 group M subtype B, UniProt P04608); conditions: HeLa cells, increasing concentration; cited from earlier work
T2 construct: host or cells: HeLa cells

[5] = HEK 293 cells, with Tat, increasing/different concentrations of the inhibitor

T1 sequence (P35965 whole entry): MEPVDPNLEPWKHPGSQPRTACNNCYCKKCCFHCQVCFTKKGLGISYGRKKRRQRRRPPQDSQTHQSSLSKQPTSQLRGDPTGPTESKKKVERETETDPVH
T2 sequence (P04608 whole entry): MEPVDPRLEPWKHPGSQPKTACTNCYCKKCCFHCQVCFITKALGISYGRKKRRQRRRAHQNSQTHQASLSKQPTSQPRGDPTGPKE

## OC[C@H]1O[C@@H](n2cnc3cc(Cl)c(Cl)cc32)[C@H](O)[C@@H]1O [DRB, 5,6-dichloro-1-beta-D-ribofuranosylbenzimidazole]
[1]; [5]
  GFP expression: GFP expression also is reduced; also recorded: progressive reduction in GFP expression; also recorded: progressive down-regulation of GFP expression
  RFP expression: should have been up-regulated, which is not the case here; also recorded: no concomitant up-regulation of RFP expression
[2]
  Cytotoxicity / cell death (light microscopy): enhanced cell death with increasing concentrations; also recorded: increasing levels of cytotoxicity; also recorded: significant levels of cell death
[3]
  GFP expression: relative down regulation of GFP
  RFP expression: relieves Tat-mediated RFP suppression; also recorded: relieves RFP gene expression

## CN1CC[C@H](c2c(O)cc(O)c3c(=O)cc(-c4ccccc4Cl)oc23)[C@H](O)C1 [Flavipiridol]
[2]
  Cytotoxicity / cell death (light microscopy): progressive increase in cytotoxicity

## COc1ccc(C(=O)C2=C3OC(C)(C)[C@@H](CC=C(C)C)C[C@@]34C[C@@H](CC=C(C)C)C(C)(C)[C@@](CC=C(C)C)(C2=O)C4=O)cc1O [LTK14]
[1]; [5]
  GFP expression: down regulation of GFP
  RFP expression: not enhanced RFP expression
[2]
  Cytotoxicity / cell death (light microscopy): progressively increased cell death

## O=C1CN=C(c2ccc[nH]2)c2cc(Cl)ccc2N1 [R05-3335]
[4]
  GFP expression: GFP expression is down-regulated

## CC[C@H](CO)Nc1nc(NCc2ccccc2)c2ncn(C(C)C)c2n1 [Roscovitine]
[1]; 293 cells, 3 μM, 48 h
  GFP expression: reduced expression of GFP
  RFP expression: not in enhanced expression of RFP
[2]; 293 cells, 3 μM
  Cytotoxicity: cytotoxicity

## COc1cccc2c1C(=O)c1c(O)c3c(c(O)c1C2=O)C[C@@](O)(C(C)=O)C[C@@H]3O[C@H]1C[C@H](NCc2ccc(CN[C@H]3C[C@H](O[C@H]4C[C@](O)(C(C)=O)Cc5c(O)c6c(c(O)c54)C(=O)c4c(OC)cccc4C6=O)O[C@@H](C)[C@H]3O)cc2)[C@H](O)[C@H](C)O1 [WP631]
[1]; 293 cells, 100 nM
  RFP expression: partially relieves Tat-mediated inhibition of RFP
[1]; [5]
  GFP expression: marginally reduced GFP expression; also recorded: marginal down regulation of GFP
  RFP expression: small relief in RFP suppression is evident, this is not significant; also recorded: insignificant levels of up-regulation of RFP; also recorded: partially relieves RFP gene expression
[2]; 293 cells, WP631 treatment (100 nM)
  Cytotoxicity (cell density under light microscopy): Low level cytotoxicity
[2]
  Cytotoxicity / cell death (light microscopy): toxic to the cell at higher concentrations; also recorded: causes apoptosis at higher concentrations
